pIC50: −log10 of the molar value. Like-named read-outs stand apart in the source and are kept apart here.
What was measured:
[1] = molecular target: T1, MMP-9 (Homo sapiens, UniProt P14780); assay: MMP enzymatic assay (Trupoint peptide), MMP-9; type: biochemical
T1 construct: Human MMP-9 catalytic domain (aa 107-446)
Method: [formula] • 1) Prepare appropriate 1×MMP assay buffer from 10× stock. […] The plate setup should be as follows, using GM6001 as plate reference compound:
• 6) Serially dilute 10 μl down the plate to achieve 1:3 dilutions in subsequent wells. After each dilution, change pipette tips to avoid compound carryover. […] Will need 10 ml enzyme solution per plate. Add enzyme to plate, 20 μl per well. Incubate 1 hr.
Prepare 5 ml total per plate. Add 10 ul of substrate to each well to achieve a final concentration of 100 nM in well. […] Read in plate reader.
(§1) Analysis Specifications • Calculate average background value from substrate/assay buffer wells • Subtract this from entire plate • Calculate average of DMSO wells for each enzyme. This is the positive control, 100% value. • For each well, calculate percent of control by dividing well value by the average DMSO value obtained above. • Paste percent of control values into Graphpad Prism 4.0.

[2] = molecular target: T2, MMP-2 (Homo sapiens, UniProt P08253); assay: MMP enzymatic assay (Trupoint peptide), MMP-2; type: biochemical
T2 construct: Human MMP-2 full length (aa 1-660)
T2 sequence (P08253 30-660): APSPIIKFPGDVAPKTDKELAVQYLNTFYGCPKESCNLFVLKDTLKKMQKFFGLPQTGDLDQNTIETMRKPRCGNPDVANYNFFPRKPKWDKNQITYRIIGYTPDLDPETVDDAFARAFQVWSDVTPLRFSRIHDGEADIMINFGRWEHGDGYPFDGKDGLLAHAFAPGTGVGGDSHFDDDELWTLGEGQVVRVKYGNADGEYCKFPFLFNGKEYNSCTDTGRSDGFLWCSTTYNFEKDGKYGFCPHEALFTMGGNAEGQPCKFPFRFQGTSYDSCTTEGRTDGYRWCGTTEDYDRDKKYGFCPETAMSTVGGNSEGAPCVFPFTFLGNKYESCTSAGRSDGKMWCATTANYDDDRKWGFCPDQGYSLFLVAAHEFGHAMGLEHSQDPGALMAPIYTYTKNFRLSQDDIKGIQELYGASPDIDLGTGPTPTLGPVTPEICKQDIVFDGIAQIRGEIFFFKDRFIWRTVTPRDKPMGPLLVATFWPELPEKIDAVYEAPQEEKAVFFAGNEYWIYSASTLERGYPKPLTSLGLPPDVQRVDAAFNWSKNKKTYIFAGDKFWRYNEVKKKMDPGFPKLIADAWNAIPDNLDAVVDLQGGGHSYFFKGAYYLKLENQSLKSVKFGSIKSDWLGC
Method: [formula] • 1) Prepare appropriate 1×MMP assay buffer from 10× stock. […] Need to prepare a 2.5× concentration stock (2.5 μM) to achieve this concentration in 50 μl. Dilute compound to 2.5 mM in 100% DMSO (a 1:40 dilution), then dilute the 2.5 mM compound to 2.5 μM (1:1000) into 1× assay buffer. Make 1 ml 2.5 μM compound in assay buffer. • 4) Fill the rows B through P of a 384-well plate with assay buffer+0.1% DMSO. • 5) Add 30 ul of the 2.5 μM compound in assay buffer to the top row of the plate, doing each compound in triplicate. The plate setup should be as follows, using GM6001 as plate reference compound:
• 6) Serially dilute 10 μl down the plate to achieve 1:3 dilutions in subsequent wells. After each dilution, change pipette tips to avoid compound carryover. Discard the remaining 10 μl after diluting into the final row. • 7) Prepare enzyme dilutions at 2.5× of final desired concentration (see below). Will need 10 ml enzyme solution per plate. Add enzyme to plate, 20 μl per well. Incubate 1 hr.
• 8) Dilute the 500 μM Trupoint peptide 1:1000 into assay buffer to achieve a 5× working stock of 500 nM. Prepare 5 ml total per plate. Add 10 ul of substrate to each well to achieve a final concentration of 100 nM in well. Also prepare background subtraction wells by adding 10 μl 5× substrate to 40 μl assay buffer per well, typically do ˜32 wells. • 9) Incubate assay at room temperature for 15 min. Read in plate reader.
as §1

T1 sequence (P14780 107-446): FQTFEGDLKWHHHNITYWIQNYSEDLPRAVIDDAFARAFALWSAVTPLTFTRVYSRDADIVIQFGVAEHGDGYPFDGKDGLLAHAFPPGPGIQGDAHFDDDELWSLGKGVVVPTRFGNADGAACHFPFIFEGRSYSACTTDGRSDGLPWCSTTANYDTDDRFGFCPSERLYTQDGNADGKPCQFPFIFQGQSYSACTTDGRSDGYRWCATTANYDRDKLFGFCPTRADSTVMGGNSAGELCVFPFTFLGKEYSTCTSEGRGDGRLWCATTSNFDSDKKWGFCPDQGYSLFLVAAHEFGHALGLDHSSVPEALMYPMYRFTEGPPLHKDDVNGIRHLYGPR

Row | SMILES | pIC50 [1] | pIC50 [2] | pIC50 ([2]; read-out: MMP-2 nM IC50)
1 | O=C1C(S(=O)(=O)c2ccc(-c3ccccc3)cc2)CCCCN1O (centres unmarked) [Compound 83, 3-(Biphenyl-4-sulfonyl)-1-hydroxy-azepan-2-one] | < 6.00 | < 6.00 | –
2 | O=C1C(S(=O)(=O)c2ccc(-c3ccc(Cl)cc3)cc2)CCCCN1O (centres unmarked) [Compound 82, 3-(4′-Chloro-biphenyl-4-sulfonyl)-1-hydroxy-azepan-2-one] | < 6.00 | < 6.00 | –
3 | Cc1ccc(Oc2ccc(N(Cc3cccn(O)c3=S)S(C)(=O)=O)cc2)cc1 [Compound 47, N-(1-Hydroxy-2-thioxo-1,2-dihydro-pyridin-3-ylmethyl)-N-(4-p-tolyloxy-phenyl)-methanesulfonamide] | 6.31 | < 6.00 | –
4 | Cc1ccc(-c2ccc(S(=O)(=O)C3CCCCN(O)C3=O)cc2)cc1 (centres unmarked) [Compound 86, 1-Hydroxy-3-(4′-methyl-biphenyl-4-sulfonyl)-azepan-2-one] | < 6.00 | < 6.00 | –
5 | CN(c1cccn(O)c1=O)S(=O)(=O)c1ccc(Oc2ccccc2)cc1 [Compound 25, N-(1-Hydroxy-2-oxo-1,2-dihydro-pyridin-3-yl)-N-methyl-4-phenoxy-benzene-sulfonamide] | 8.85 | 8.82 | –
6 | O=c1c(N(Cc2ccccc2)S(=O)(=O)c2ccc(Oc3ccccc3)cc2)cccn1O [Compound 22, N-Benzyl-N-(1-hydroxy-2-oxo-1,2-dihydro-pyridin-3-yl)-4-phenoxy-benzene-sulfonamide] | 7.48 | – | 7.65
7 | Cc1ccc(Oc2ccc(N(Cc3cccn(O)c3=O)S(C)(=O)=O)cc2)cc1 [Compound 42, N-(1-Hydroxy-2-oxo-1,2-dihydro-pyridin-3-ylmethyl)-N-(4-p-tolyloxy-phenyl)-methanesulfonamide] | 7.33 | 6.68 | –
8 | CCCCc1ccc(N(Cc2cccn(O)c2=O)S(C)(=O)=O)cc1 [Compound 45, N-(4-Butyl-phenyl)-N-(1-hydroxy-2-oxo-1,2-dihydro-pyridin-3-ylmethyl)-methane-sulfonamide] | < 6.00 | < 6.00 | –
9 | CN(c1cccn(O)c1=O)S(=O)(=O)c1ccc(-c2ccc(Cl)cc2)cc1 [Compound 36, 4′-Chloro-biphenyl-4-sulfonic acid (1-hydroxy-2-oxo-1,2-dihydro-pyridin-3-yl)-methyl-amide] | 5.74 | 5.89 | –
10 | Cc1ccc(Oc2ccc(S(=O)(=O)Cn3cccc(O)c3=O)cc2)cc1 [Compound 61, 3-Hydroxy-1-(4-p-tolyloxy-benzenesulfonylmethyl)-1H-pyridin-2-one] | 7.34 | – | 7.78
11 | O=c1c(O)cccn1CS(=O)(=O)c1ccc(Br)s1 [Compound 63, 1-(5-Bromo-thiophene-2-sulfonylmethyl)-3-hydroxy-1H-pyridin-2-one] | 6.18 | < 6.00 | –
12 | Cc1ccc(Oc2ccc(S(=O)(=O)Nc3cccn(O)c3=O)cc2)cc1 [Compound 38] | 7.19 | 7.30 | –
13 | Cc1ccc(Oc2ccc(S(=O)(=O)N(CCN3CCOCC3)c3cccn(O)c3=O)cc2)cc1 [Compound 34, N-(1-Hydroxy-2-oxo-1,2-dihydro-pyridin-3-yl)-N-(2-morpholin-4-yl-ethyl)-4-p-tolyloxy-benzenesulfonamide] | 8.62 | 8.46 | –
14 | COc1ccc(-c2ccc(S(=O)(=O)Cn3cccc(O)c3=O)s2)cc1 [Compound 64, 3-Hydroxy-1-[5-(4-methoxy-phenyl)-thiophene-2-sulfonylmethyl]-1H-pyridin-2-one] | 6.28 | – | 6.73
15 | COc1ccc(S(=O)(=O)Cc2cccn(O)c2=O)cc1 [Compound 96] | < 6.00 | < 6.00 | –
16 | COc1ccc2[nH]c(-c3ccc(S(=O)(=O)C4CCCCN(O)C4=O)cc3)nc2c1 (centres unmarked) [Compound 77, 1-Hydroxy-3-[4-(5-methoxy-1H-benzoimidazol-2-yl)-benzenesulfonyl]-azepan-2-one] | < 6.00 | < 6.00 | –
17 | COc1ccc(-c2ccc(S(=O)(=O)N[C@@H]3CC=CCN(O)C3=O)s2)cc1 [Compound 17, 5-(4-Methoxy-phenyl)-thiophene-2-sulfonic acid (1-hydroxy-2-oxo-2,3,4,7-tetrahydro-1H-azepin-3-(R)-yl)-amide] | 7.97 | 8.41 | –
18 | CCCCOc1ccc(N(Cc2cccn(O)c2=O)S(C)(=O)=O)cc1 [Compound 46, N-(4-Butoxy-phenyl)-N-(1-hydroxy-2-oxo-1,2-dihydro-pyridin-3-ylmethyl)-methanesulfonamide] | < 6.00 | < 6.00 | –
19 | O=C1[C@H](NS(=O)(=O)c2ccc(N3CCN(c4ccccc4)CC3)cc2)CC=CCN1O [Compound 10, N-(1-Hydroxy-2-oxo-2,3,4,7-tetrahydro-1H-azepin-3-(R)-yl)-4-(4-phenyl-piperazin-1-yl)-benzenesulfonamide] | < 6.00 | < 6.00 | –
20 | O=C1C(S(=O)(=O)c2ccc(Oc3ccc(OC(F)(F)F)cc3)cc2)CCCCN1O (centres unmarked) [Compound 71, 1-Hydroxy-3-[4-(4-trifluoromethoxy-phenoxy)-benzenesulfonyl]-azepan-2-one] | 7.35 | 6.96 | –
21 | O=C1[C@H](NS(=O)(=O)c2ccc(-c3ccc(Cl)cc3)cc2)CC=CCN1O [Compound 2, 4′-Chloro-biphenyl-4-sulfonic acid (1-hydroxy-2-oxo-2,3,4,7-tetrahydro-1H-azepin-3-(R)-yl)-amide] | 5.94 | 7.16 | –
22 | CN1CCN(CCN([C@@H]2CC=CCN(O)C2=O)S(=O)(=O)c2ccc(Oc3ccc(Cl)cc3)cc2)CC1 [Compound 14, 4-(4-Chloro-phenoxy)-N-(1-hydroxy-2-oxo-2,3,4,7-tetrahydro-1H-azepin-3-(R)-yl)-N-[2-(4-methyl-piperazin-1-yl)-ethyl]-benzenesulfonamide] | 9.70 | 9.31 | –
23 | Cc1ccc(Oc2ccc(N(Cc3cc(Br)cn(O)c3=O)S(C)(=O)=O)cc2)cc1 [Compound 49, N-(5-Bromo-1-hydroxy-2-oxo-1,2-dihydro-pyridin-3-ylmethyl)-N-(4-p-tolyloxy-phenyl)-methanesulfonamide] | 6.93 | 6.26 | –
24 | O=C1[C@H](NS(=O)(=O)c2ccc(Oc3ccccc3)cc2)CC=CCN1O [Compound 3, N-(1-Hydroxy-2-oxo-2,3,4,7-tetrahydro-1H-azepin-3-(R)-yl)-4-phenoxy-benzenesulfonamide] | 8.75 | 8.97 | –
25 | O=C1[C@H](CS(=O)(=O)c2ccc(Oc3ccccc3)cc2)NCCCN1O [Compound 69, (3R)-1-Hydroxy-3-(4-phenoxy)benzenesulfonylmethyl-1,4-diazepan-2-one] | 7.51 | 7.33 | –
26 | O=C1C(S(=O)(=O)c2ccc(-c3ccc(F)cc3)cc2)CCCCN1O (centres unmarked) [Compound 95] | 5.93 | 6.23 | –
27 | COc1ccc(Oc2ccc(S(=O)(=O)N(C)c3cccn(O)c3=O)cc2)cc1 [Compound 29, N-(1-Hydroxy-2-oxo-1,2-dihydro-pyridin-3-yl)-4-(4-methoxy-phenoxy)-N-methyl-benzenesulfonamide] | 9.06 | – | 8.25
28 | N#Cc1ccc2[nH]c(-c3ccc(S(=O)(=O)C4CCCCN(O)C4=O)cc3)nc2c1 (centres unmarked) [Compound 76, 2-[4-(1-Hydroxy-2-oxo-azepane-3-sulfonyl)-phenyl]-1H-benzimidazole-5-carbonitrile] | < 6.00 | < 6.00 | –
